Experiments:
[1] = biological target: TNF-α converting enzyme (TACE) (Homo sapiens, UniProt P78536); test: Test procedure for measuring TACE inhibition (fluorescent peptidyl substrate); format: biochemical; details: second table; IC50 (nM) per footnote a
THP-1 cells = test: Human monocytic THP-1 cell differentiation assay for soluble proteins (THP soluble protein assay), LPS-stimulated, TNF-α ELISA; format: cell-based; details: Homo sapiens, THP-1; at 3 uM; percent change from vehicle positive control; read-out: TNFalpha at 3 uM) THP (percent change)
MMP-13 = MMP-13 (Homo sapiens, UniProt P45452); test: MMP-13 inhibition (thiopeptide or fluorescent peptide substrate); format: biochemical; details: % @ 10µM per footnote a; read-out: MMP13
Text: Alternatively, a fluorescent peptide substrate is used.

MMP-1 = biological target: T1, MMP-1 (Homo sapiens, UniProt P03956); test: MMP-1 inhibition (thiopeptide or fluorescent peptide substrate); details: read-out: MMP1
T1 sequence (P03956 100-469): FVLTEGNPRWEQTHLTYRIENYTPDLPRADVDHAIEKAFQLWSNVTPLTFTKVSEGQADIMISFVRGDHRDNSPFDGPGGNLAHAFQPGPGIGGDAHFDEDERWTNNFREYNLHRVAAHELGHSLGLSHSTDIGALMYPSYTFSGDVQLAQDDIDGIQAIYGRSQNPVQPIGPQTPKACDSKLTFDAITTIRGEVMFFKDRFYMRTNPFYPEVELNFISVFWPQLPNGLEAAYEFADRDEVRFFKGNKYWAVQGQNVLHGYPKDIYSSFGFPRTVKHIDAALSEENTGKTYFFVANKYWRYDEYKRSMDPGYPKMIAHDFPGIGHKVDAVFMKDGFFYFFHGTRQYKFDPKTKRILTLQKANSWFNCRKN
Procedure: (§1) The enzyme activity is measured by the rate of the color increase. The thiopeptide substrate is made up fresh as a 20 mM stock in 100% DMSO and the DTNB is dissolved in 100% DMSO as a 100 mM stock and stored in the dark at room temperature. Both the substrate and DTNB are diluted together to 1 mM with substrate buffer (50 mM HEPES pH 7.5, 5 mM CaCl2) before use. The stock of enzyme is diluted with buffer (50 mM HEPES, pH 7.5, 5 mM CaCl2, 0.02% Brij) to the desired final concentration.
(§2) Alternatively, a fluorescent peptide substrate is used. In this test procedure, the peptide substrate contains a fluorescent group and a quenching group. Upon cleavage of the substrate by an MMP, the fluorescence that is generated is quantitated on the fluorescence plate reader. The assay is run in HCBC assay buffer (50mM HEPES, pH 7.0, 5 mM Ca^+2, 0.02% Brij, 0.5% Cysteine), with human recombinant MMP-1, MMP-9, or MMP-13. The substrate is dissolved in methanol and stored frozen in 1 mM aliquots. For the assay, substrate and enzymes are diluted in HCBC buffer to the desired concentrations. Compounds are added to the 96 well plate containing enzyme and the reaction is started by the addition of substrate.
(§3) For either the thiopeptide or fluorescent peptide test procedures, the slope of the line is calculated and represents the reaction rate. […] The mean (x±sem) of the control rate is calculated and compared for statistical significance (p<0.05) with drug-treated rates using Dunnett's multiple comparison test.

MMP-9 = MMP-9 (Homo sapiens, UniProt P14780); test: MMP-9 inhibition (thiopeptide or fluorescent peptide substrate); details: read-out: MMP9
Sequence of MMP-9 (P14780 94-707): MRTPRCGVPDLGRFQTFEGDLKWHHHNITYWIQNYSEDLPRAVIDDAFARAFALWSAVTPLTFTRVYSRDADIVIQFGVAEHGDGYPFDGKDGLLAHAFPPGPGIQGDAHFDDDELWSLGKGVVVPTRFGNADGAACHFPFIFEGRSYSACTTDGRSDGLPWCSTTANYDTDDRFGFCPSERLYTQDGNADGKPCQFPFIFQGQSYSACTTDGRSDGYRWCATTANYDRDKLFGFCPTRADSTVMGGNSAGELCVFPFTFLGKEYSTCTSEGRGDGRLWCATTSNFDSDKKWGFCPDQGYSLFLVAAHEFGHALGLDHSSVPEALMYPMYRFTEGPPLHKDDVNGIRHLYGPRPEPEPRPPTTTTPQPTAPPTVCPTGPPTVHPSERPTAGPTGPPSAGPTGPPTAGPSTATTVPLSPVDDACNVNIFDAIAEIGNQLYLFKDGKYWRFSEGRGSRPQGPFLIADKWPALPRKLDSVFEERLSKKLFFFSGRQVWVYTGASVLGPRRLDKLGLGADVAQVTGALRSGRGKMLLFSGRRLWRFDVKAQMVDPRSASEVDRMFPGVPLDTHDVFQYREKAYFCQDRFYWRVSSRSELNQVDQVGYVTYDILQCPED
Procedure: as §1, §2, §3

Sequence of TNF-α converting enzyme (TACE) (P78536 215-824): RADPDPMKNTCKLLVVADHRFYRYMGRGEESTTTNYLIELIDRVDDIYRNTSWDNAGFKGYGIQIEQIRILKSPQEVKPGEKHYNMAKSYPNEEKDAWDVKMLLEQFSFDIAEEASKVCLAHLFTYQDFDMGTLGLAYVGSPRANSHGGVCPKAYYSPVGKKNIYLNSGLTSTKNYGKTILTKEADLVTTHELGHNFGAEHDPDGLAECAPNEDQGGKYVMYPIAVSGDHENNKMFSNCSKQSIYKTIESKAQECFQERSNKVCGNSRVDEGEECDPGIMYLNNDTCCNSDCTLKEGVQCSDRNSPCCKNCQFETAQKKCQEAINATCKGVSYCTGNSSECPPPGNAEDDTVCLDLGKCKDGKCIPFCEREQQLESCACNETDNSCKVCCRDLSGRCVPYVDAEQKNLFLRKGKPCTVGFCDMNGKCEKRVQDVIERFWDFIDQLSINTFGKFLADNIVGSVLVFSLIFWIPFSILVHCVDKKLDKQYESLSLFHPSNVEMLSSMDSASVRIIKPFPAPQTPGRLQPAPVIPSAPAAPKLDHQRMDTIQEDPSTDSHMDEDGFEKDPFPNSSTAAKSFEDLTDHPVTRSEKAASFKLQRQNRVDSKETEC

CC#CCOc1ccc(SC(C(=O)NO)c2ccccc2)cc1 (stereo not drawn) [Example 111, 2-{[4-(2-Butynyloxy)phenyl]sulfanyl}-2-phenyl-N-hydroxyacetamide]
IC50 [1]: 50 nM
inhibition at 3 µM (THP-1 cells): -10%
inhibition at 10 µM (MMP-13): 0.8%
inhibition at 10 µM (MMP-1): 6.6%
inhibition at 10 µM (MMP-9): 13.5%

CC#CCOc1ccc(SC(C(=O)NO)c2ccc(Cl)cc2)cc1 (stereo not drawn) [Example 80, 2-{[4-(2-butynyloxy)phenyl]sulfanyl}-2-(4-chlorophenyl)-N-hydroxyacetamide]
IC50 [1]: 102 nM
inhibition at 3 µM (THP-1 cells): 4%
inhibition at 10 µM (MMP-13): 48.8%
inhibition at 10 µM (MMP-1): 0%
inhibition at 10 µM (MMP-9): 10.9%

CC#CCOc1ccc([S+]([O-])[C@@H](C(=O)NO)c2ccccc2)cc1 (stereo partly drawn) [Example 112, R-2-{[4-(2-butynyloxy)phenyl]sulfinyl}-2-phenyl-N-hydroxyacetamide]
IC50 [1]: 28 nM
inhibition at 3 µM (THP-1 cells): 15%
inhibition at 10 µM (MMP-13): 23.6%
inhibition at 10 µM (MMP-1): 9.9%
inhibition at 10 µM (MMP-9): 8.2%

— patent EP1147080B1 (Wyeth Holdings Corporation, priority 1999, dated 2000)
